Data set [1] can be described thus: AUC(0 to 24 hrs) in Sprague-Dawley rat at 30 mg/kg, po. It counts as ADME, organism-based. The conditions noted are these: in vivo.
Data set [2] concerns HCC70. The data set can be described thus: Antitumor activity against human HCC70 cells xenografted in female nu/nu mouse assessed as tumor growth inhibition at 10 mg/kg, po administered once daily and measured for 4 weeks. It counts as functional. The settings on record: HCC70, 672 h, read-out: TGI.
Data set [3] can be described thus: Half life in human OVCAR-3 cells xenografted in female Balb/c nude mouse plasma at 2 mg/kg, po administered once daily. It counts as ADME, organism-based.
The test system of data set [4] is HCC70. Nature of the data set: cells. The conditions noted are these: Homo sapiens, HCC70, 72 h.
Description: Antiproliferative activity against human HCC70 cells assessed as inhibition of cell proliferation incubated for 72 hrs by celltiter-glo assay
A short description of data set [5]: Half life in dog at 0.2 mg/kg, iv. Format: ADME, organism-based, Canis lupus familiaris. The conditions noted are these: in vivo.
A short description of data set [6]: Metabolic stability in human liver microsomes assessed as intrinsic clearance. Format: ADME, Microsome. The conditions noted are these: read-out: CLH.
Data set [7] can be described thus: Plasma protein binding in mouse assessed as unbound fraction. It counts as ADME, cell-free.
Data set [8] in a line: AUC(0 to t) in human HCC70 cells xenografted in female nu/nu mouse plasma at 10 mg/kg, po administered once daily. Format: ADME, organism-based.
Data set [9] concerns the target Serine/threonine-protein kinase TAO1 (Homo sapiens) (UniProt Q7L7X3). Nature of the data set: Inhibition of TAOK1 (unknown origin) at 200 nM relative to control; values are per cent of control.
A short description of data set [10]: Cmax in human HCC70 cells xenografted in female nu/nu mouse plasma at 1 mg/kg, po administered once daily. It counts as ADME, organism-based.
Data set [11] can be described thus: AUC(0 to t) in rat at 5 mg/kg, po. The conditions noted are these: in vivo. Format: ADME, organism-based.
Data set [12] is described as follows: Half life in rat at 1 mg/kg, iv. It counts as ADME, organism-based. The conditions noted are these: in vivo.
A short description of data set [13]: Half life in human OVCAR-3 cells xenografted in female Balb/c nude mouse plasma at 10 mg/kg, po administered once daily. Format: ADME, organism-based.
A short description of data set [14]: AUC(0 to 24 hrs) in Sprague-Dawley rat at 100 mg/kg, po. The settings on record: in vivo. It counts as ADME, organism-based.
Data set [15] can be described thus: Metabolic stability in rat liver microsomes assessed as intrinsic clearance. Format: ADME, Microsome. The settings on record: read-out: CLH.
Data set [16] concerns OVCAR-3. The data set can be described thus: Antitumor activity against human OVCAR-3 cells xenografted in female Balb/c nude mouse assessed as tumor growth inhibition at 2 mg/kg, po administered once daily and measured on day 22. Format: functional. The conditions noted are these: OVCAR-3, 528 h, time 22 day, read-out: TGI.
The nature of data set [17]: AUC(0 to t) in human HCC70 cells xenografted in female nu/nu mouse plasma at 3 mg/kg, po administered once daily. It counts as ADME, organism-based.
A short description of data set [18]: AUC (0 to t) in human OVCAR-3 cells xenografted in female Balb/c nude mouse plasma at 20 mg/kg, po administered once daily. Format: ADME, organism-based.
Data set [19] relates to HCC70. The data set can be described thus: Antitumor activity against human HCC70 cells xenografted in female nu/nu mouse assessed as tumor growth inhibition at 3 mg/kg, po administered once daily and measured for 4 weeks. It counts as functional. The conditions noted are these: HCC70, 672 h, read-out: TGI.
Data set [20] is described as follows: AUC(0 to t) in mouse at 1 mg/kg, iv. The settings on record: in vivo. It counts as ADME, organism-based.
In data set [21] the test system is Mus musculus. The data set can be described thus: Downregulation of Myc protein in female Balb/c nude mouse xenografted with human HCC70 cells administered once daily for 7 days. Format: functional. The conditions noted are these: dose 2-10 mg/kg, time 7.0 day.
The nature of data set [22]: Metabolic stability in mouse liver microsomes assessed as intrinsic clearance. It counts as ADME, Microsome. The settings on record: read-out: CLH.
Data set [23] in a line: Solubility of compound at pH 7.4. The conditions noted are these: buffer. Format: physicochemical.
Data set [24] in a line: Oral bioavailability in dog at 2 mg/kg. The conditions noted are these: in vivo. It counts as ADME, organism-based, Canis lupus familiaris.

≈ marks a conversion by molar mass, not a printed value.

Serine/threonine-protein kinase TAO1 (Homo sapiens), sequence (Q7L7X3 whole entry): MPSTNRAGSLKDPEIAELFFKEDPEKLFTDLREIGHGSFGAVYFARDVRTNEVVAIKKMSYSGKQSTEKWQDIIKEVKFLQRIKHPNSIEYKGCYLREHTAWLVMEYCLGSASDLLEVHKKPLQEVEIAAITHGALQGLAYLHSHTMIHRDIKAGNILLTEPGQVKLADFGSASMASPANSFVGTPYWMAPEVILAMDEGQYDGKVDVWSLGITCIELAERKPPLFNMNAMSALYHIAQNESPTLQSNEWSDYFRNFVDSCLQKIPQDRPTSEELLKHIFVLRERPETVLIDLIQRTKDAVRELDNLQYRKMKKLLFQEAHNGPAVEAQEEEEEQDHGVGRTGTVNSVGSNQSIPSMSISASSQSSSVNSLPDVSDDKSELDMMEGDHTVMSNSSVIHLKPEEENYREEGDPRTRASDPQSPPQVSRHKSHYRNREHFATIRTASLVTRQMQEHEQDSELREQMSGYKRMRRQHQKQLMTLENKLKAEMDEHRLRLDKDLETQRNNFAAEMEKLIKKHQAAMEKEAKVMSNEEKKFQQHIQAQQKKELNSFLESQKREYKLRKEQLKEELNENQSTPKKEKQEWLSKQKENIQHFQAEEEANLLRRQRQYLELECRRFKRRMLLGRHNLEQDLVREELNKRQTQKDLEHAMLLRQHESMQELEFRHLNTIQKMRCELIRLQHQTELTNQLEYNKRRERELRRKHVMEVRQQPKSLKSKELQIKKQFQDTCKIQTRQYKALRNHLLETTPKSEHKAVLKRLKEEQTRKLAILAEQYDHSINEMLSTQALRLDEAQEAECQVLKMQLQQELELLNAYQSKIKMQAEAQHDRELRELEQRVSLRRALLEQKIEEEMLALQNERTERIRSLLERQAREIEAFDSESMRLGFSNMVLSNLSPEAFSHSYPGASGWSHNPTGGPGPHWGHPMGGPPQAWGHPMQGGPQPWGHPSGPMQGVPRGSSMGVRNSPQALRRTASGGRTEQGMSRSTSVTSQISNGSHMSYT

For `CN1CC(F)(F)CCN(C)[C@H]2CC[C@@H](C2)Nc2ncc(C(F)(F)F)c(n2)-c2c[nH]c3c(P(C)(C)=O)c(ccc23)C1=O`, the AUC(0-t) in [1] came to 3960 ng·h/mL; in [8], 812 ng·h/mL; in data set [11] it was 554 ng·h/mL; in [14], 14200 ng·h/mL; in data set [17], 203 ng·h/mL; in [18], 3940 ng·h/mL. This molecule displayed an AUC(0-t) in [20] of 315 ng·h/mL. The inhibition in vivo at 10 mg/kg in data set [2] is 175%. Also, the half-life in [3] is 102 min; in [5], 204 min; in data set [12] it was 72 min; in data set [13], 120 min. This molecule gave a half-inhibitory concentration (IC50) in [4] of 24.6 nM. In addition, the CLint scaled in data set [6] was found to be 19.6 mL/min/kg; in [15], 44.9 mL/min/kg; in data set [22] it was 84.3 mL/min/kg. The fraction unbound in data set [7] came out at 0.036. Further, the residual activity in data set [9] came to 24%. In [10], the peak level (Cmax) was 75 ng/mL. For the same molecule, the inhibition in vivo at 2 mg/kg in data set [16] came out at 110%. In addition, the inhibition in vivo at 3 mg/kg in data set [19] turned out to be 120%. The Activity entry in data set [21] is “Dose-dependent-effect”. Moreover, in data set [23], the solubility was determined as 917 µg/mL (≈ 1530 µM). Further, the bioavailability in data set [24] came out at 147%.

Source of the values: ChEMBL document CHEMBL6092221, “Discovery of a Novel Macrocyclic Noncovalent CDK7 Inhibitor for Cancer Therapy” (J Med Chem, 2024).
